ChEMBL document CHEMBL1201862, “PubChem BioAssay data set” (2004)
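These data come from cells grown in 96-well plates and exposed to compound for 48 hours at five concentrations. GI50 = concentration required for 50% inhibition of growth.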 Calls of active or inactive are those of the source. Cut-off read from the data, not from the text of the source: active = GI50 up to about 1.1 µM and inactive = higher.

Columns and labels:
Test in all cases: DTP human tumour cell line panel, 48 h
[1] = test system: LXFL 529
[2] = test system: UO-31
[3] = test system: NCI-H522
[4] = test system: HCC 2998
[5] = test system: U-251
[6] = test system: SNB-75
[7] = test system: EKVX
[8] = test system: SR
[9] = test system: NCI-H460
[10] = test system: KM-20L2
[11] = test system: HT-29
[12] = test system: SNB-19
[13] = test system: HCT-116
[14] = test system: RXF 393
[15] = test system: SNB-78
[16] = test system: Malme-3M
[17] = test system: 786-0
[18] = test system: SF-295
[19] = test system: SK-MEL-2
[20] = test system: DMS-114
[21] = test system: M14
[22] = test system: ACHN
[23] = test system: SN12C
[24] = test system: SK-MEL-5
[25] = test system: RPMI-8226
[26] = test system: SK-OV-3
[27] = test system: MOLT-4
[28] = test system: A498
[29] = test system: OVCAR-5
[30] = test system: UACC-257
[31] = test system: DMS-273
[32] = test system: HCT-15
[33] = test system: M19-MEL
[34] = test system: OVCAR-8
[35] = test system: RXF 631
[36] = test system: DLD-1
[37] = test system: NCI-H226
[38] = test system: SW-620
[39] = test system: CAKI-1
[40] = test system: OVCAR-3
[41] = test system: KM12
[42] = test system: HL-60
[43] = test system: CCRF-CEM
[44] = test system: UACC-62
[45] = test system: HOP-18
[46] = test system: COLO 205
[47] = test system: SF-539
[48] = test system: HOP-62
[49] = test system: K562
[50] = test system: TK-10
[51] = test system: A549
[52] = test system: NCI-H23
[53] = test system: OVCAR-4
[54] = test system: SF-268
[55] = test system: IGROV-1
[56] = test system: SK-MEL-28
[57] = test system: HOP-92
[58] = test system: LOX IMVI

O=C(O)CCC(N/C=C1/N=C(c2ccccc2)OC1=O)C(=O)O (centres undefined)
GI50 [1]: > 100 µM (inactive) | GI50 [2]: > 100 µM (inactive) | GI50 [3]: > 100 µM (inactive) | GI50 [4]: > 100 µM (inactive) | GI50 [5]: > 100 µM (inactive) | GI50 [6]: > 100 µM (inactive) | GI50 [7]: > 100 µM (inactive) | GI50 [8]: > 100 µM (inactive) | GI50 [9]: > 100 µM (inactive) | GI50 [10]: > 100 µM (inactive) | GI50 [11]: > 100 µM (inactive) | GI50 [12]: > 100 µM (inactive) | GI50 [13]: > 100 µM (inactive) | GI50 [14]: > 100 µM (inactive) | GI50 [15]: > 100 µM (inactive) | GI50 [16]: > 100 µM (inactive) | GI50 [17]: > 100 µM (inactive) | GI50 [18]: > 100 µM (inactive) | GI50 [19]: > 100 µM (inactive) | GI50 [20]: > 100 µM (inactive) | GI50 [21]: > 100 µM (inactive) | GI50 [22]: > 100 µM (inactive) | GI50 [23]: > 100 µM (inactive) | GI50 [24]: > 100 µM (inactive) | GI50 [25]: > 100 µM (inactive) | GI50 [26]: > 100 µM (inactive) | GI50 [27]: > 100 µM (inactive) | GI50 [28]: > 100 µM (inactive) | GI50 [29]: > 100 µM (inactive) | GI50 [30]: > 100 µM (inactive) | GI50 [31]: > 100 µM (inactive) | GI50 [32]: > 100 µM | GI50 [33]: > 100 µM (inactive) | GI50 [34]: > 100 µM (inactive) | GI50 [35]: > 100 µM (inactive) | GI50 [36]: > 100 µM (inactive) | GI50 [37]: > 100 µM (inactive) | GI50 [38]: > 100 µM (inactive) | GI50 [39]: > 100 µM (inactive) | GI50 [40]: > 100 µM (inactive) | GI50 [41]: > 100 µM (inactive) | GI50 [42]: 10 µM (inactive) | GI50 [43]: > 100 µM (inactive) | GI50 [44]: > 100 µM (inactive) | GI50 [45]: 36.1 µM (inactive) | GI50 [46]: > 100 µM (inactive) | GI50 [47]: > 100 µM (inactive) | GI50 [48]: > 100 µM (inactive) | GI50 [49]: > 100 µM (inactive) | GI50 [50]: > 100 µM (inactive) | GI50 [51]: > 100 µM (inactive) | GI50 [52]: > 100 µM (inactive) | GI50 [53]: > 100 µM (inactive) | GI50 [54]: > 100 µM (inactive) | GI50 [55]: > 100 µM (inactive) | GI50 [56]: > 100 µM (inactive)

Nc1nc(CC2(O)CCCCC2)cc(-c2ccccc2)n1
GI50 [1]: > 66.7 µM (inactive) | GI50 [2]: > 55 µM (inactive) | GI50 [3]: 27.2 µM (inactive) | GI50 [4]: 26.6 µM (inactive) | GI50 [5]: 39 µM (inactive) | GI50 [6]: > 47.9 µM (inactive) | GI50 [7]: 35.6 µM (inactive) | GI50 [8]: 16.5 µM (inactive) | GI50 [9]: 24.3 µM (inactive) | GI50 [10]: 17.5 µM (inactive) | GI50 [11]: 16.6 µM (inactive) | GI50 [12]: 31.2 µM (inactive) | GI50 [13]: 19.8 µM (inactive) | GI50 [14]: > 40.3 µM (inactive) | GI50 [15]: > 48.6 µM (inactive) | GI50 [16]: > 10 µM (inactive) | GI50 [17]: 21 µM (inactive) | GI50 [18]: 38.5 µM (inactive) | GI50 [19]: 35.6 µM (inactive) | GI50 [20]: 23 µM (inactive) | GI50 [21]: 29.2 µM (inactive) | GI50 [22]: 34.4 µM (inactive) | GI50 [23]: 20.3 µM (inactive) | GI50 [24]: 24.9 µM (inactive) | GI50 [25]: 23.6 µM (inactive) | GI50 [26]: > 100 µM (inactive) | GI50 [27]: 16.7 µM (inactive) | GI50 [28]: 33.5 µM (inactive) | GI50 [29]: 20.9 µM (inactive) | GI50 [30]: 36.3 µM (inactive) | GI50 [57]: > 44.9 µM (inactive) | GI50 [31]: > 44.9 µM (inactive) | GI50 [32]: > 43.9 µM | GI50 [33]: 28.1 µM (inactive) | GI50 [34]: > 50.2 µM (inactive) | GI50 [35]: 34.4 µM (inactive) | GI50 [36]: 22.1 µM (inactive) | GI50 [37]: > 44.8 µM (inactive) | GI50 [38]: 25.7 µM (inactive) | GI50 [39]: 51.2 µM (inactive) | GI50 [40]: 25.6 µM (inactive) | GI50 [41]: 23.1 µM (inactive) | GI50 [42]: 15.6 µM (inactive) | GI50 [43]: 27.5 µM (inactive) | GI50 [44]: 23.4 µM (inactive) | GI50 [45]: 35.5 µM (inactive) | GI50 [46]: 16.7 µM (inactive) | GI50 [47]: > 74 µM (inactive) | GI50 [48]: > 49.7 µM (inactive) | GI50 [49]: 16.6 µM (inactive) | GI50 [50]: > 61.8 µM (inactive) | GI50 [58]: 40.4 µM (inactive) | GI50 [51]: 26.7 µM (inactive) | GI50 [52]: > 43 µM (inactive) | GI50 [53]: 35.1 µM (inactive) | GI50 [54]: > 64.4 µM (inactive) | GI50 [55]: 43 µM (inactive) | GI50 [56]: > 63.2 µM (inactive)
